The target of one series is T1, COX-2 (Rattus norvegicus, UniProt P35355).
T1 construct: from tissue; host or cells: rat gastric mucosa (LPS-treated rats, in vivo dosing)
T1 sequence (P35355 18-604): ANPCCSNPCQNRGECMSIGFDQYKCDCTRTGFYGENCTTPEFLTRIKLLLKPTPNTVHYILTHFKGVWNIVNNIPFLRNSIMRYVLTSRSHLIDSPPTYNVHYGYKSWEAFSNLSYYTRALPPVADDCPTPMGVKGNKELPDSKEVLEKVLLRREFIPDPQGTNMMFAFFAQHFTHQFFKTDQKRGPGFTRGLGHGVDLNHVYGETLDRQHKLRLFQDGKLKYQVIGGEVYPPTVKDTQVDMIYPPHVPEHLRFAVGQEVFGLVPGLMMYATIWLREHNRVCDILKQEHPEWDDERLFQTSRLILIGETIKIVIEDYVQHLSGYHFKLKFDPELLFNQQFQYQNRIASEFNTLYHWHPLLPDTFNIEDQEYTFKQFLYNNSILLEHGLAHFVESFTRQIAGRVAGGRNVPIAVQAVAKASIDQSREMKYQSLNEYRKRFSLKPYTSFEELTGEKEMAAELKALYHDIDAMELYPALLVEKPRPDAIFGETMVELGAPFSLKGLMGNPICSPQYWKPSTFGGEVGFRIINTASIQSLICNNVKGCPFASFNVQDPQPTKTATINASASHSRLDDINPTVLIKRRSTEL
The experiment in a line: COX-2 activity assay (PGE2 in gastric mucosa, EIA) in LPS-treated rats. The series is classed as in vivo. To be noted: gavage, LPS 2.5 mg/kg-activated. How it is done:
(2) COX-2 activity assay: The assay was similar to that of COX-1, except that LPS was injected intraperitoneally to rats at a dose of 2.5 mg/kg to activate COX-2 in this experiment. After administration, the content of PGE2 in gastric mucosa was measured using an enzyme-linked immunosorbent assay (EIA) kit (operated according to the instructions provided by the manufacturer) and converted to COX2 activity.
The percentage inhibition rate against COX-1 (FIG. 1a—gastric mucosa, FIG. 1b—myocardium) and COX-2 (FIG. 1c) and the IC50 values (Table 1a—gastric mucosa; Table 1b—myocardium) of each tested pharmaceutical compound were calculated from the above data.

The next series has as its system gastric mucosa. The experiment in a line: Ulcer induction in rats after gavage (lesions of the gastric mucosa). The series is classed as in vivo. To be noted: for prevalence of ulcer / Ulcer index: gavage three times; for Ulcer index: Dose 90 μM/kg, 12 hours after last gavage; for ulcer at high concentration: gavage, high concentration (90 μM).
The subject of series [1] is normal mouse intestinal mucosa cells. The experiment in a line: Cisplatin damage of normal cells with compound (LDH). The following applies: all tested concentrations except the high concentration, 24 hours. It counts as cell-based. How it is done: (§1) The mechanism of compounds enhancing killing effect of chemotherapeutic agents on tumor cells while protecting normal cells: mouse colon cancer cells (MCA-38) and primarily-cultured normal mouse intestinal mucosa cells were cultured in a 96-well plate, respectively. 24 hours later, various concentrations (10, 30 and 90 μM) of compound b was respectively added to the cell culture medium, and incubated for 24 hours. LDH was used to detect the damage of the cells, and the cells were collected and extracted for protein. The expression levels of adenosine triphosphate-binding transporter (ABCG2) and the cell cycle-dependent protein […] (p21) were detected by immunoblotting (performed according to the instructions provided by the manufacturer). […] ABCG2 is a transporter, and can pump anticancer drugs out of the cells. […] The high expression of p21 allows the cells to be in non-dividing quiescent phase, so that cells are not sensitive to chemotherapeutic drugs or injury in other forms. The compounds of the present invention make these proteins expressed differentially in normal tissues and tumor tissues, which is one of the reasons for selectively protecting normal tissues and enhancing the sensitivity of tumors to treatment.

The test system of series [2] is adenosine triphosphate-binding transporter (ABCG2). In words: Expression of ABCG2 by immunoblotting. The series is classed as cell-based, mouse. How it is done: as §1
For series [3], the system named is cell cycle-dependent protein kinase (p21). The experiment in a line: Expression of p21 by immunoblotting. The series is classed as cell-based, mouse. How it is done: as §1
(In western blotting, separated proteins are transferred to a membrane and probed.)

For series [4], the system named is colon cancer cells (SW480). To be noted: SW480 tumors in nude mice. On the procedure: The experiment was carried out using compound a in this example. Under sterile conditions, a suspension of colon cancer cells (SW480) in logarithmic growth phase (cell concentration was adjusted to 1×10^7/mL with physiological saline) was inoculated subcutaneously to 5 to 6 weeks old balb/c female nude mice on the right rear back, and each nude mice was inoculated at an amount of 0.3 ml, i.e. the number of cells contained was 3×10^6 per each mouse. 10 days later, subcutaneous transplanted tumor of 100-250 mm^3 appeared. The nude mice with tumor were randomly divided into several groups, each containing 6 mice: (1) control group; (2) doxorubicin group; (3) doxorubicin+amifostine; (4) doxorubicin+Celecoxib+intermediate II; (5) doxorubicin+intermediate I+intermediate II; (6) doxorubicin+low-dose compound a (6 mg/kg/day); (7) doxorubicin+high-dose compound a (15 mg/kg/day). Firstly, the following compounds were administered to each group of nude mice with tumor according to the following doses: intermediate I and intermediate II (3 mg/kg/day respectively), amifostine (400 mg/kg/day), Celecoxib (6 mg/kg/day). Except that amifostine was subcutaneously injected (30 minutes before irradiation), the other protective agents were administered by gavage. The above drugs were administered every day for 5 weeks continuously. 12 hours after the administration, doxorubicin (2.5 mg/kg) was injected intraperitoneally, and it was administered once every 2 days for 5 weeks. During the dosing period, the body weight of the nude mice was measured every two days with a precision electronic balance. The growth of the tumor and whether or not red and swelling and rupture occur were observed every day after inoculation. After tumor formation, the surface morphology and activity of the transplanted tumor were examined, and the longest diameter (a) and the shortest diameter (b) of the tumor nodules were measured every 3 days with a vernier caliper. […] 21 days after administration of doxorubicin, the tail vein blood of mice was collected to perform leukocyte count and blood biochemical index analysis. The tumor tissue and normal peripheral tissues were taken on the last day of treatment, and the content of the intermediate I therein was measured by HPLC (FIG. 9a). At the same time, paraffin sections were made, the occurrence of apoptosis was detected by terminal labeling (FIG. 9b), and the relative survival percentages of normal tissue and tumor tissue were calculated (the results are summarized in FIG. 9b).

Series [5] in a line: Content of active components in tumor tissue and normal peripheral tissue (HPLC). To be noted: last day of treatment. It counts as in vivo. On the procedure: The experiment was carried out using compound a in this example. Under sterile conditions, a suspension of colon cancer cells (SW480) in logarithmic growth phase (cell concentration was adjusted to 1×10^7/mL with physiological saline) was inoculated subcutaneously to 5 to 6 weeks old balb/c female nude mice on the right rear back, and each nude mice was inoculated at an amount of 0.3 ml, i.e. the number of cells contained was 3×10^6 per each mouse. 10 days later, subcutaneous transplanted tumor of 100-250 mm^3 appeared. […] During the dosing period, the body weight of the nude mice was measured every two days with a precision electronic balance. […] After tumor formation, the surface morphology and activity of the transplanted tumor were examined, and the longest diameter (a) and the shortest diameter (b) of the tumor nodules were measured every 3 days with a vernier caliper. […] The tumor tissue and normal peripheral tissues were taken on the last day of treatment, and the content of the intermediate I therein was measured by HPLC (FIG. 9a). At the same time, paraffin sections were made, the occurrence of apoptosis was detected by terminal labeling (FIG. 9b), and the relative survival percentages of normal tissue and tumor tissue were calculated (the results are summarized in FIG. 9b).

The next series concerns HT-29 cells. In words: HT-29 transplanted tumors in nude mice, compound a in combination with doxorubicin. The series is classed as in vivo. The following applies: Doxorubicin 2 mg/kg/week i.p. or compound a 3 mg/kg/day gavage, 4 weeks. How it is done: Compound a was administered by gavage once a day for 4 weeks continuously; Doxorubicin was injected intraperitoneally once a week for 4 weeks. Body weight and tumor volume of animals were measured and calculated according to Example 9.

The mark [6] stands for this setting: normal mouse intestinal mucosa cells.

`COc1ccc2c(CC(=O)OCCCCCCCCCCc3c(C)c(O)c(OC)c(OC)c3O)c(C)n(C(=O)c3ccc(Cl)cc3)c2c1` [compound b]: on COX-2, the “inhibition against COX-2” value was “significantly enhanced”. Further, the prevalence of ulcer in the series with gastric mucosa (10 μM), with gastric mucosa (30 μM) and in the series with gastric mucosa (90 μM) was 0/6 in each case. This compound also displayed a Ulcer index in the series with gastric mucosa of 0. In addition, the “ulcer at high concentration” value in the series with gastric mucosa is given as “does not result in ulcer”. The “cisplatin damage of normal intestinal mucosa cells” value in series [1] was “significantly inhibit cisplatin from damaging normal intestinal mucosa cells”. In addition, the “expression of ABCG2 in tumor cells” value in series [2] (MCA-38 cells) is recorded as “significantly inhibit expression”. Besides, in series [2] (setting [6]), the “expression of ABCG2 in normal cells” value was “no influence”. Moreover, the “expression of p21 in tumor cells” value in series [3] (MCA-38 cells) is “no influence”. The “expression of p21 in normal intestinal mucosa cells” value in series [3] (setting [6]) is on record as “significantly enhance the expression of p21”.
On to `COC1=C(OC)C(=O)C(CCCCCCCCCCOC(=O)Cc2c(C)n(C(=O)c3ccc(Cl)cc3)c3cc(OC)ccc23)=C(C)C1=O` [compound a], for which the “inhibition against COX-2” value at COX-2 is “significantly enhanced”. The prevalence of ulcer is recorded as 0/6 in the series with gastric mucosa (10 μM), 0/6 in the series on gastric mucosa (30 μM) and 1/6 in the series with gastric mucosa (90 μM). In addition, the Ulcer index in the series with gastric mucosa is reported as 3.3 ± 0.12. The “ulcer at high concentration” value in the series with gastric mucosa was “only one rat has light ulcer”. For the same compound, the “effect on tumor / on sensitivity of tumor to doxorubicin” value in series [4] (doxorubicin 2.5 mg/kg i.p. every 2 days for 5 weeks, agents daily) was “significantly enhance the sensitivity of tumor cells to chemotherapy”. Further, the “death of animals during treatment” value in series [4] (doxorubicin 2.5 mg/kg i.p., 6 mice per group) is “No death occurs”. Besides, in series [4] (with doxorubicin), the “protection of normal tissue and cells from doxorubicin” value was “effective in inhibiting the killing effect of Doxorubicin on normal leukocytes, cardiomyocytes and peripheral normal tissues around the tumor”. For the same compound, the “content of active components in tumor tissues versus peripheral normal tissues” value in series [5] was “evidently higher”. The “inhibition of the tumor, administered alone” value with HT-29 cells is recorded as “only slightly inhibited”.

For the origin of these results see US10494341B2, “Compound containing indoleacetic acid core structure and use thereof” (Beijing An Jian Xi Bio-Medical Technology Co., Ltd., priority 2015, dated 2019).
